Measurements from ChEMBL document CHEMBL5325404, “Identification of inhibitors as drug candidates against Chagas disease” (Eur J Med Chem, 2023).

Key:
[1] = tested on: Trypanosoma cruzi; test: Antitrypanosomal activity against Trypanosoma cruzi Y trypomastigotes infected in monkey LLC-MK2 cells assessed as parasite growth inhibition incubated for 24 hrs by resazurin dye based microplate reader assay; format: functional, organism-based
[2] = Cytotoxicity against mouse NCTC clone 929 cells incubated for 48 hrs by MTT spectrophotometric assay; format: toxicity, cell-based; details: NCTC clone 929 (L929) cells
[3] = Selectivity index, ratio of CC50 for cytotoxicity against mouse NCTC clone 929 cells to IC50 for antitrypanosomal activity against Trypanosoma cruzi Y trypomastigotes infected in monkey LLC-MK2 cells assessed as parasite growth inhibition; format: toxicity, cell-based; details: read-out: Ratio CC50/IC50
[4] = Trypanosoma cruzi, Y, LLC-MK2, 24 h, read-out: IC50

For `O=C(Nc1ccc(F)cc1F)[C@H](NS(=O)(=O)c1cccc2nsnc12)c1ccccc1`, the IC50 [1, 4] was 55.2 µM, the CC50 at 48 h [2] was > 200 µM and the selectivity ratio [3] was > 3.6.

`Cc1ccccc1Nc1nc(N(C)CCO)nc2c1cnn2-c1ccccc1` gave an IC50 [1, 4] of 12.8 µM, a CC50 at 48 h [2] of 25 µM and a selectivity ratio [3] of 2.

`Cc1cccc(NC(=O)[C@@H](Cc2ccccc2)NS(=O)(=O)c2cccc3nsnc23)c1` showed an IC50 [1, 4] of 22.8 µM, a CC50 at 48 h [2] of 79.5 µM and a selectivity ratio [3] of 3.5.

With `Cn1nnc2cc(C(=O)Nc3nccn3Cc3ccccc3Cl)ccc21` the IC50 [1] was “Not Active”.

In the case of `Cc1ccc(C[C@H](C)NC(=O)Nc2ccc(C)c(-n3cnnn3)c2)s1`, the IC50 [1] is reported as “Not Active”.

With `Cc1cc2nn(CC(=O)Nc3cc(F)cc(F)c3)c(=O)n2c(Nc2ccc(C)c(F)c2)n1` the IC50 [1] was “Not Active”.

In the case of `COc1ccc(C)cc1NC(=O)Cn1nc2cc(C)nc(Nc3ccc(F)cc3)n2c1=O`, the IC50 [1] is reported as “Not Active”.

With `CCOc1ccccc1C(=O)NCC(=O)N1CCC[C@@H](c2nnc3n2CCCCC3)C1` the IC50 [1] was “Not Active”.

With `Cc1ccc(NC(=O)Cn2nc3cc(C)nc(Nc4ccc(F)c(C)c4)n3c2=O)cc1` the IC50 [1] was “Not Active”.

For `Cc1ccc(-c2noc(C(=O)NCCNC(=O)COc3ccc(Cl)c(C)c3)n2)cc1`, the IC50 [1] was “Not Active”.

For `Cc1ccc(-n2cnnn2)cc1NC(=O)N[C@H](C)c1cccc(Cl)c1`, the IC50 [1] was “Not Active”.

With `Cc1nn(C)c2[nH]c(=O)c(CCC(=O)NC[C@@H]3CCCc4ccccc43)c(C)c12` the IC50 [1] was “Not Active”.

With `Cc1ccc(NC(=O)NC(=O)[C@@H](C)Sc2nncn2Cc2ccco2)c(C)c1` the IC50 [1] was “Not Active”.

`Cc1cc(C)c2cc(C(=O)Nc3ccccc3-n3cncn3)[nH]c2c1` gave an IC50 [1, 4] of 9 µM, a CC50 at 48 h [2] of 80.9 µM and a selectivity ratio [3] of 8.9.

For `CC(=O)c1cn(CC(=O)NCCCc2nnc3ccccn23)c2ccccc12`, the IC50 [1] was “Not Active”.

For `Cc1ccc2nc(NC(=O)[C@H]3CCCN3S(=O)(=O)c3cccc4nsnc34)sc2c1`, the IC50 [1] was “Not Active”.

With `CCOc1ccc(CCNC(=O)C2CCN(c3ncnc4onc(C)c34)CC2)cc1` the IC50 [1] was “Not Active”.

With `CCN(CCO)c1nc(Nc2cc(OC)ccc2OC)c2cnn(-c3ccccc3)c2n1` the IC50 [1] was “Not Active”.

For `COc1ccccc1OCC#CCNS(=O)(=O)c1ccc(Cl)c(Cl)c1`, the IC50 [1, 4] was 32.1 µM, the CC50 at 48 h [2] was 128 µM and the selectivity ratio [3] was 4.

In the case of `COc1ccc(OC)c(Nc2nc(NCCCO)nc3c2cnn3-c2ccccc2)c1`, the IC50 [1, 4] is reported as 10.1 µM, the CC50 at 48 h [2] is reported as > 200 µM and the selectivity ratio [3] is reported as > 19.8.

With `Cc1nn(C)c2[nH]c(=O)c(/C=C/C(=O)NCCc3ccc(Cl)cc3Cl)c(C)c12` the IC50 [1] was “Not Active”.

For `Cc1ccc(-n2nnnc2S[C@@H](C)C(=O)NCC(=O)Nc2ccc(F)c(F)c2F)c(C)c1`, the IC50 [1, 4] was 37.8 µM, the CC50 at 48 h [2] was 52.8 µM and the selectivity ratio [3] was 1.4.

With `Cc1cc(C)c2cc(C(=O)NCc3ccccc3Cn3cncn3)[nH]c2c1` the IC50 [1] was “Not Active”.

In the case of `Cc1cc(C)cc(Nc2nc(C)cc3nn(CC(=O)Nc4ccc(C)c(F)c4)c(=O)n23)c1`, the IC50 [1] is reported as “Not Active”.

In the case of `COc1ccc2nc(NC(=O)CN(C)S(=O)(=O)c3cccc4nsnc34)sc2c1`, the IC50 [1] is reported as “Not Active”.

With `Cc1ccc(-n2nnnc2S[C@@H](C)C(=O)NC(=O)Nc2ccccc2)cc1` the IC50 [1] was “Not Active”.

Compound `CCCOCc1ccccc1CNC(=O)Nc1cnc2c(c1)c(C)nn2C` has an IC50 [1, 4] of 68.9 µM, a CC50 at 48 h [2] of 66.9 µM and a selectivity ratio [3] of 1.

With `OCCCNc1nc(Nc2ccccc2)c2cnn(-c3ccccc3)c2n1` the IC50 [1, 4] was 7.1 µM, the CC50 at 48 h [2] was 85.2 µM and the selectivity ratio [3] was 12.

`OCCCNc1nc(Nc2ccc(F)cc2)c2cnn(-c3ccccc3)c2n1` showed an IC50 [1, 4] of 14.8 µM, a CC50 at 48 h [2] of 39.2 µM and a selectivity ratio [3] of 2.6.

In the case of `CC[C@]1(c2ccccc2)NC(=O)N(NC(=O)CSc2nc(C)nc3sc(C)c(C)c23)C1=O`, the IC50 [1, 4] is reported as 13.6 µM, the CC50 at 48 h [2] is reported as > 200 µM and the selectivity ratio [3] is reported as > 14.7.

With `O=C(Cn1ccnc1[N+](=O)[O-])NCc1ccccc1` [BENZNIDAZOLE] the IC50 [1, 4] was 18.4 µM, the CC50 at 48 h [2] was > 200 µM and the selectivity ratio [3] was > 10.7.

For `Cc1cn([C@@H](C)c2ccccc2)nc1NC(=O)CCc1nc(C(C)C)no1`, the IC50 [1] was “Not Active”.

With `CC(C)Nc1cc(C(=O)c2cc(F)ccc2O)cn2c(=O)c3ccccc3nc12` the IC50 [1] was “Not Active”.
